# Reference: US12139478B2, “Compounds, compositions and methods” (Denali Therapeutics Inc., priority 2017, dated 2024)
# Like-named read-outs stand apart in the source and are kept apart here.
# System: ATF4 translation
# Assay: ATF4 Nano Luciferase reporter integrated stress response (ISR) assay in H4 ATF4-NLuc cells
# Type: cell-based, human
# Conditions: Homo sapiens, 0.5 h, H4 ATF4-NLuc (clone 17) cells, compound 30 minutes, then sodium arsenite for 6 additional hours, luminescence readout
# From the text: Cellular stress leads to activation of the integrated stress response pathway through one of four eukaryotic initiation factor 2a kinases and halts global translation, while allowing for the translation of select transcripts like ATF4 (activating transcription factor 4) that are important for the response to cellular stress. During normal conditions, small open reading frames (ORFs) in the 5′ UTR of ATF4 occupy the ribosome and prevent translation of the coding sequence of ATF4. During stress conditions however, the ribosome scans past these upstream ORFs and preferentially begins translation at the coding sequence of ATF4. In this way, the translation, and thus protein level of ATF4 is a readout of ISR pathway activation. Thus, a fusion of the uORFs and the beginning of the coding sequence of ATF to a common cellular reporter like nano-luciferase allows for a sensitive and high-throughput readout of ISR pathway activity.
# Compounds as provided herein were tested in the following assay. The ATF4 Nano Luciferase reporter was constructed by fusing the human full length 5′ untranslated region (5′-UTR) and a small portion of the coding sequence of the ATF4 gene upstream of the Nano Luciferase (NLuc) coding sequence lacking it's start codon. Specifically, nucleotides +1 through +364 (relative to the transcriptional start site) of ATF4 transcript variant 2 (NCBI NM_182810.2) flanked 5′ by EcoRI and 3′ by BamHI restriction enzyme sites were synthesized and cloned into the EcoRI/BamHI cloning sites of pLVX-EF1a-IRES-Puro lentivirus vector (Clontech). Lentiviral particles were produced with Lenti-X single shots (VSV-G, Clontech) according to the manufacturer's instructions and used to transduce a human H4 neuroglioma cell line (ATCC HTB-148). H4 cells were selected with 1.25 μg/mL Puromycin, and clonal cell lines generated by limiting dilution. We utilized this cell line to generate an integrated stress response (ISR) assay to evaluate the activity of ISR pathway inhibitors via luminescence readout. The H4 ATF4-NLuc (clone 17) cell line is plated at a density of […] in 96-well or 384-well respectively in DMEM+[…]. 24-hours later test compounds diluted in dimethyl sulfoxide (DMSO) are added for 30 minutes at 37° C., followed by ISR pathway activation with […] sodium arsenite aqueous solution for 6 additional hours. Nano Glo luciferase reagent (N1150, Promega) is added according to manufacturer instructions and the luminescence signal (corresponding to the level of ATF4 translation and thus ISR pathway activation) is read with a standard plate reader with luminescence detection capabilities. […] In the tables below, activity of the tested compounds is provided, and in Table 3 as follows: […]; ++=IC50 1-10 μM; +=IC50>10 μM.
# [1] = read-out: Biological Example 1 (ATF4 translation, IC50 nM)
IC50 (read-out: Activity),IC50 [1],Structure (SMILES)
< 1000 nM,,"O=C(N[C@@H]1CC[C@@H](c2nnc(C3CC(OC(F)(F)F)C3)o2)OC1)c1ccc2cc(Cl)ccc2n1 (stereo partly drawn) [Example 56, 6-chloro-N-[(3R,6S)-6-[5-[3-cis-(trifluoromethoxy)cyclobutyl]-1,3,4-oxadiazol-2-yl]tetrahydropyran-3-yl]quinoline-2-carboxamide]"
< 1000 nM,,"O=C(N[C@@H]1CC[C@@H](c2nnc(C3CC(OC(F)(F)F)C3)o2)OC1)c1ccc2cc(F)ccc2n1 (stereo partly drawn) [Example 57, 6-fluoro-N-((3R,6S)-6-(5-(3-cis-(trifluoromethoxy)cyclobutyl)-1,3,4-oxadiazol-2-yl)tetrahydro-2H-pyran-3-yl)quinoline-2-carboxamide]"
< 1000 nM,3.7 nM,"O=C(COc1ccc(Cl)c(F)c1)N[C@@H]1CC[C@@H](c2nc([C@H]3C[C@@H](OC(F)(F)F)C3)no2)OC1 [Example 58, 2-(4-chloro-3-fluorophenoxy)-N-((3R,6S)-6-(3-(3-cis-(trifluoromethoxy)cyclobutyl)-1,2,4-oxadiazol-5-yl)tetrahydro-2H-pyran-3-yl)acetamide]"
< 1000 nM,,"O=C(N[C@H]1CO[C@H](c2nnc(C3CC(OC(F)(F)F)C3)o2)CC1(F)F)c1ccc2cc(F)ccc2n1 (stereo partly drawn) [Example 59, N-((3S,6S)-4,4-difluoro-6-(5-(3-cis-(trifluoromethoxy)cyclobutyl)-1,3,4-oxadiazol-2-yl)tetrahydro-2H-pyran-3-yl)-6-fluoroquinoline-2-carboxamide]"
< 1000 nM,3.5 nM,"O=C(N[C@@H]1CC[C@@H](c2nnc(C3CC(OC(F)(F)F)C3)o2)OC1)c1ccc2cc(C(F)(F)F)ccc2n1 (stereo partly drawn) [Example 60, N-((3R,6S)-6-(5-(3-cis-(trifluoromethoxy)cyclobutyl)-1,3,4-oxadiazol-2-yl)tetrahydro-2H-pyran-3-yl)-6-(trifluoromethyl)quinoline-2-carboxamide]"
< 1000 nM,14.4 nM,"O=C(COc1ccc(C(F)(F)F)cc1)N[C@H]1CO[C@H](c2nnc(C3CC(OC(F)(F)F)C3)o2)CC1(F)F (stereo partly drawn) [Example 61, N-((3S,6S)-4,4-difluoro-6-(5-(3-cis-(trifluoromethoxy)cyclobutyl)-1,3,4-oxadiazol-2-yl)tetrahydro-2H-pyran-3-yl)-2-(4-(trifluoromethyl)phenoxy)acetamide]"
< 1000 nM,,"O=C(COc1ccc(Cl)c(F)c1)N[C@H]1CO[C@H](c2nnc(C3CC(OC(F)(F)F)C3)o2)CC1(F)F (stereo partly drawn) [Example 62, 2-(4-chloro-3-fluorophenoxy)-N-((3S,6S)-4,4-difluoro-6-(5-(3-cis-(trifluoromethoxy)cyclobutyl)-1,3,4-oxadiazol-2-yl)tetrahydro-2H-pyran-3-yl)acetamide]"
< 1000 nM,,"O=C(N[C@@H]1CC[C@@H](c2nnc(C3CC(OC(F)(F)F)C3)o2)OC1)[C@@H]1CCc2cc(F)ccc2O1 (stereo partly drawn) [Example 66, 6-fluoro-N-((3R,6S)-6-(5-(3-cis-(trifluoromethoxy)cyclobutyl)-1,3,4-oxadiazol-2-yl)tetrahydro-2H-pyran-3-yl)chroman-2-carboxamide]"
< 1000 nM,3.1 nM,"O=C(COc1ccc(Cl)cc1)N[C@H]1CO[C@H](c2nnc(C3CC(OC(F)(F)F)C3)o2)C[C@@H]1F (stereo partly drawn) [Example 67, 2-(4-chlorophenoxy)-N-((3S,4S,6S)-4-fluoro-6-(5-(3-cis-(trifluoromethoxy)cyclobutyl)-1,3,4-oxadiazol-2-yl)tetrahydro-2H-pyran-3-yl)acetamide]"
< 1000 nM,,"O=C(COc1ccc(Cl)cc1)N[C@H]1CO[C@H](c2nnc(C3CC(OC(F)(F)F)C3)o2)[C@@H](F)C1 (stereo partly drawn) [Example 68, 2-(4-chlorophenoxy)-N-((3R,5S,6R)-5-fluoro-6-(5-(3-cis-(trifluoromethoxy)cyclobutyl)-1,3,4-oxadiazol-2-yl)tetrahydro-2H-pyran-3-yl)acetamide]"
< 1000 nM,8.9 nM,"O=C(N[C@@H]1CC[C@@H](c2nnc(C3CC(OC(F)(F)F)C3)o2)OC1)c1ccc2cc(F)c(F)cc2n1 (stereo partly drawn) [Example 75, 6,7-difluoro-N-((3R,6S)-6-(5-(3-cis-(trifluoromethoxy)cyclobutyl)-1,3,4-oxadiazol-2-yl)tetrahydro-2H-pyran-3-yl)quinoline-2-carboxamide]"
< 1000 nM,,O=C(N[C@@H]1CC[C@@H](c2nnc(C3CC(OC(F)(F)F)C3)o2)OC1)c1ccc2c(F)c(F)ccc2n1 (some centres unmarked) [Example 76]
